Reference: US8975275B2, “Use of chemotherapeutic agents” (priority 1999, dated 2015)
Where a name gives a salt, the structure may show the parent alone.

How the values were obtained:
Assay type in all cases: in vivo, human
dentin wounds = experiment: Prophylaxis of dentin wounds (patient cases)
Source text: For this reason, after removal of the carious regions, the compounds of formula (I) or formula (II) are applied to the prepared cavities and rubbed in. Said compounds are applied in the form of solutions, gels or suspensions to form a local depot with an antibiotic action before the reliner is placed on and/or in the fundament of the inlays, onlays, crowns or bridges. […] A further advantage is that the tubule structure is not modified or denatured here, as is frequently the case with the current procedures using dentin protecting agents and impregnating agents. The microbe-free conditions achieved in this way have a permanent beneficial effect on prosthetic procedures since dentin hypersensitivities and subsequently secondary caries are effectively avoided.
The application of the compounds of formula (I) or formula (II) can either replace or complement the disinfecting treatment with hydrogen peroxide. The compounds of formula (I) or formula (II) can be applied in dissolved form or as a gel, optionally in the presence of solubilizers to promote a deep penetration of the chemotherapeutic agents into the dentinal tubules. Gels are used in the provisional care of dentin wounds and solutions are preferably used before the definitive fixing of e.g. crowns and bridges. The solutions or gels of the chemotherapeutic agents used are applied to the prepared dentin surfaces and gently rubbed in. Residues are then removed, for example with a cotton wool swab or air jet. Inlays, onlays, crowns or bridges can then be fixed. The compounds of formula (I) or formula (II) can be used in concentrations of 0.005 mg/ml to 200 mg/ml. Preferred concentrations are those ranging from 0.5 mg/ml to 150 mg/ml and particularly preferred concentrations are those ranging from 10 to 100 mg/ml.

[1] = tested on: pulpitis due to carious diseases; experiment: Topical treatment of pulpitis due to carious diseases (patient cases)
Source text: This is of great importance because, for example in the case of caries profunda, it is always necessary to decide whether softened residual dentin can be left over the pulp. By virtue of complete elimination of the microbes present, there is now a novel method of treatment wherein a thin softened dentin covering can be left if the compounds of formula (I) or formula (II) are used. This method of treatment makes it possible to free infected dentin layers of microbes and to stop pulp infections. This means that pain reactions are eliminated and pulp infections are to a certain extent cured. The pulp remains vital. The topical application of the compounds of formula (I) or formula (II) followed the removal of the carious dentin. The compounds of formula (I) or formula (II) were applied for example in aqueous solution, in a form of gelatinous consistency or on an inert carrier, for example by means of a cotton wool plug. The overlying cavity was occluded with a cement to seal the margins. The cotton wool plug was left in the cavity for three to six days. The compounds of formula (I) or formula (II) can be used in concentrations of 0.005 mg/ml to 200 mg/ml, Preferred concentrations are those ranging from 0.5 mg/ml to 150 mg/ml and particularly preferred concentrations are those ranging from 10 to 100 mg/ml.

osseomucosal wounds = experiment: Topical treatment of osseomucosal wounds (patient cases)
Source text: Application is effected by flushing and/or by means of strip inserts impregnated with compounds of formula (I) or formula (II). They are to be used for example for postoperative infections following dentosurgical interventions (extractions). For this purpose the gel containing the compound of formula (I) or formula (II) is syringed directly into the extraction wound or onto a collagen sponge which remains in the extraction wound. The wound is closed for about half an hour by biting on a tampon. Prophylactic applications have been particularly successful after the extraction of teeth with focal infections, Liquid forms of administration suitable for flushing fistulae are those containing the compounds of formula (I) or formula (II) in concentrations of 0.005 mg/ml to 250 mg/ml. Preferred concentrations are those ranging from 0.5 to 100 mg/ml, Forms suitable for coating strips are gels containing the compounds of formula (I) or formula (II), as well as aqueous solutions or suspensions. These applications can contain the compounds of formula (I) or formula (II) in concentrations of 0.005 mg/ml to 200 mg/ml. Preferred concentrations for solutions are those ranging from 0.1 to 50 mg/ml Gelatinous forms of administration in concentrations of 25-150 mg/ml are preferred in the case of strip inserts.

COc1c(N2C[C@@H]3CCCN[C@@H]3C2)c(F)cc2c(=O)c(C(=O)O)cn(C3CC3)c12 [moxifloxacin hydrochloride, 1-cyclopropyl-6-fluoro-1,4-dihydro-8-methoxy-7-[(4aS,7aS)-octahydro-6H-pyrrolo[3,4-b]pyridin-6-yl]-4-oxo-3-quinolinecarboxylic acid]
clinical finding at check-up (dentin wounds; Patient A 2.1, teeth 33 and 36 prepared for bridge, solution 25 mg/ml to cavity, check-up after 3 weeks): patient symptom-free | clinical finding at check-up (dentin wounds; Patient A 2.2, solution 50 mg/ml, after final filling, check-up after 4 weeks): teeth vital, patient symptom-free | clinical finding at check-up (dentin wounds; Patient A 2.2, teeth 22, 23, 24, smear with solution 50 mg/ml, check-up after 2 weeks): teeth symptom-free | clinical finding at check-up (dentin wounds; Patient A 2.3, teeth 14-17 cervical erosions, smear with solution 50 mg/m, check-up after 3 weeks): patient symptom-free | clinical finding at check-up (dentin wounds; Patient A 2.4, teeth 11, 12, 21, 22 prepared for crowns, smear with solution 25 mg/ml, check-up after 3 weeks): patient symptom-free | clinical finding at check-up (dentin wounds; Patient A 2.5, tooth 44, smear with solution 25 mg/ml, check-up after 9 days): patient symptom-free | clinical finding at check-up ([1]; Patient A 1.1, gel 25 mg/ml, after final filling, check-up after 3 weeks): tooth vital, patient symptom-free | clinical finding at check-up ([1]; Patient A 1.10, teeth 16, 17, 27, 36, 37, 46 occlusal caries, pellet inserts gel 50 mg/ml, check-up after 14 days): patient symptom-free, teeth vital | clinical finding at check-up ([1]; Patient A 1.1, tooth 24 carious defect, pellet insert gel 25 mg/ml, check-up after 4 days): patient was symptom-free | clinical finding at check-up ([1]; Patient A 1.2, gel 50 mg/ml, after final filling, check-up after 14 days): teeth vital, patient symptom-free | clinical finding at check-up ([1]; Patient A 1.2, teeth 11, 13 carious defects, pellet inserts gel 50 mg/ml, check-up after 1 week): teeth 11 and 13 symptom-free | clinical finding at check-up ([1]; Patient A 1.3, gel 25 mg/ml, repetition of insert, check-up after 3 days): tooth vital, patient symptom-free | clinical finding at check-up ([1]; Patient A 1.3, tooth 24 carious defect, pellet insert gel 25 mg/ml, check-up after one week): still slight discomfort of unknown origin | clinical finding at check-up ([1]; Patient A 1.4, major mesial carious defect, night pain, pellet inserts gel 50 mg/ml, check-up after 7 days): patient symptom-free, tooth vital | clinical finding at check-up ([1]; Patient A 1.5, tooth 13 weakly vital, night pain, pellet insert gel 50 mg/ml, check-up after 4 days): patient symptom-free, tooth vital | clinical finding at check-up ([1]; Patient A 1.6, gel 50 mg/ml, repetition of insert, check-up after 7 days): patient symptom-free, tooth vital | clinical finding at check-up ([1]; Patient A 1.6, tooth 36 reduced vitality, pellet insert gel 50 mg/ml, check-up after 6 days): still slight sensitivity to heat and cold | clinical finding at check-up ([1]; Patient A 1.7, tooth 44 reduced vitality, pellet inserts gel 50 mg/ml, check-up after 4 days): patient symptom-free | clinical finding at check-up ([1]; Patient A 1.8, tooth 36 reduced vitality, pellet insert gel 50 mg/ml, check-up after 3 weeks): patient symptom-free, tooth vital | clinical finding at check-up ([1]; Patient A 1.9, tooth 27, pellet insert gel 25 mg/ml, check-up after 7 days): patient symptom-free, tooth vital | clinical finding at check-up (osseomucosal wounds; Patient C 1, wound care after extraction, depot of gel 50 mg/ml by gauze strip, check-up after 3 days): patient symptom-free, good wound margin adaptation | clinical finding at check-up (osseomucosal wounds; Patient C 2, regio 36 fistulation, incision, flushing solution 50 mg/ml + strip insert gel 50 mg/ml, check-up after 3 days): patient symptom-free, good rapid healing process | clinical finding at check-up (osseomucosal wounds; Patient C 3, teeth 26 and 46 apical granulomas, extraction (osteotomy), gauze with gel 50 mg/ml, check-up after 2 days): patient symptom-free | clinical finding at check-up (osseomucosal wounds; Patient C 4, gauze with gel 50 mg/ml, check-up after one week): good wound margin adaptation, patient symptom-free | clinical finding at check-up (osseomucosal wounds; Patient C 4, tooth 48 osteotomy, gauze with gel 50 mg/ml, check-up after 2 days): slight wound pain, no postoperative oedema | clinical finding at check-up (osseomucosal wounds; Patient C 5, after root canal filling, check-up after 3 weeks): patient symptom-free | clinical finding at check-up (osseomucosal wounds; Patient C 5, tooth 34 pulpitis purulenta, fistulation, flushing solution 50 mg/ml + canal insert and gauze insert gel 50 mg/ml, check-up after 3 days): good healing process, patient symptom-free | clinical finding at check-up (osseomucosal wounds; Patient C 6, tooth 36 wound care after extraction, depot of gel 50 mg/ml by gauze strips, check-up after 3 days): patient symptom-free, good wound margin adaptation | clinical finding at check-up (osseomucosal wounds; Patient C 7, tooth 22 root tip resection due to cyst, strip insert gel 50 mg/ml, check-up after 3 days): patient symptom-free, good healing process | clinical finding at check-up (osseomucosal wounds; Patient C 9, same combined treatment, after root canal filling, check-up after 2 weeks): patient symptom-free | clinical finding at check-up (osseomucosal wounds; Patient C 9, tooth 14 pulpitis purulenta, fistulation, moxifloxacin hydrochloride solution 25 mg/ml flushing + grepafloxacin gel 25 mg/ml canal insert + moxifloxacin hydrochloride gel 25 mg/ml gauze insert, check-up after 6 days): patient symptom-free
